Source: US3971814A, “Benzo(b)thiophene derivatives” (priority 1972, dated 1976)
Read-outs that look alike come from different tables or passages of the source.

What was measured:
[1] = test system: Yeast Edema of the Rat Paw; assay: Yeast edema and determination of pain threshold in the rat paw; format: in vivo; settings: 3 h
Description: test animals are male rats (SIV 50) weighing 100 to 180 g. […] 10 animals belonged to each dosage group.
The volume of the paw is determined according to the method described by Enders and Heidbrink, the pain threshold according to that described by Randall and Selitto (Arch. Int. Pharmacodyn CXI: 409, 1957).
Following initial measurements, […] of a 5% suspension of dried yeast is injected subplantarly into the right paw and the test substances are administered immediately. The blank control group is given Tragacanth mucilage only. After 3 hours the pain threshold and the volume of the paw are determined again.
The mean value of the increase in paw volume of the animals of the blank control after 3 hours is rated 100%, and the mean value of the increase in paw volume of the animals of the substance groups expressed as a percentage thereof. Pain threshold after 3 hours reflects the increase or decrease in percent, compared to the initial value.
In order to be able to calculate the ED50 according to the method by Lichtfield and Wilcoxon (J.P.E.T. 96:99, 1949), those animals in a dose group are considered protected when the paw swelling was at least 40% less than that of the blank control.

Granuloma Pouch = assay: Granuloma pouch test; format: in vivo; settings: rat, ig., 2×50.0 mg/kg daily, section K
Description: Under light ether anesthesia 25 ml of air are injected under the shaved skin of the back. 0.5 ml of croton oil/animal (0.05%) are injected into the pouch formed by the air, and evenly distributed over the back by turning the animal.
On the third day croton oil (3%, 0.5 ml/animal) is again injected into this pouch.
The average dry weights of the granuloma pouches and the quantities of secretion of the groups subjected to treatment are then compared with those of the control group and the percental deviations calculated.
At the end of some tests the suprarenal glands are removed and the weight of these organs is also determined.
The weight of the animals is measured daily and the changes determined as a percentage.

in vivo = settings: mouse
[2] = test system: Kaolin Edema of the Rat Paw; assay: Kaolin edema of the rat paw; format: in vivo; settings: for 60 min. (paw edema) / 120 min. (paw edema) / 180 min. (paw edema): ig., section K
Description: test animals used are the same as stated under Example B and up to the beginning of the test, the procedure corresponded to that described under this example.
After an initial measurement, a sterile 25% kaolin suspension was injected (0.05 ml/paw) subplantarly. The test substances are administered immediately, and after 60, 120, and 180 minutes the paw volume is again determined.
Evaluation of the tests was performed as stated under Example C, and the results so obtained presented below: […]

male mice (NMRI) = assay: Hot-plate test (analgesia); format: in vivo; settings: mouse, i.g.
Description: male mice (NMRI) weighing 18 to 28 g are used as test animals. The animals are placed on a copper plate constantly kept at 55°C, and the time is measured until they lick their forepaws.
Following 3 initial measurements, the test substances are administered intragastrically. Afterwards the measurements are repeated over a period of 2 hours at intervals of 30 minutes. Each dose is administered to 10 animals selected from groups of 15 animals following the initial measurements.
The test substances are administered as a suspension in 1% Tragacanth mucilage, the volume of liquid amounting to 2 ml/100 g of body weight.
For the purpose of statistical evaluation according to Litchfield and Wilcoxon, those animals in which the reaction time has been extended by at least 100% are considered protected.

[3] = test system: Arthritis Induced by the Freund Adjuvant; assay: Adjuvant arthritis; format: in vivo; settings: rat, i.g., 2 × 250.0 mg/kg
Description: test animals used are the same as described under Example E; food and water is given ad libitum.
On the first day of the test a 0.8% suspension of Mycobacterium butyrium in paraffin (0.05 or 0.1 ml/paw) is injected subplantarly into the left hind paw of the animals. […] From the 19th to the 22nd day the animals showing a reaction are treated intragastrically with the test substances. The right paw having been marked above the ankle-joint, the volume is determined daily from the 19th to the 22nd or 23rd day, according to the process described under Example B.
The volume of liquid, as well as of the carrier administered, corresponded to that described in the above tests.

[4] = test system: Carrageenin Edema of the Rat Paw; assay: Carrageenin edema of the rat paw; format: in vivo
Description: test animals used are the same as stated under Example B and up to the initial measurement, the procedure corresponded to that described under this example.
After an initial measurement, the test substances are administered and after 60 minutes a 1% Carrageenin suspension is injected subplantarly (0.1 ml/paw). After 60 and 180 minutes the paw volume is again determined. Here, too, the blank control group was treated with the carrier alone.
The increase in the volume of the paw after 60 minutes is considered as the first phase of the biphase edema and that after 180 minutes, as compared to the 60-minute-value, as the second phase. Moreover, the total increase of the paw edema within 180 minutes, as compared to the initial value, is also determined.
Determination of the influence exerted by the substances upon the development of the paw edema and calculation of the ED50 are done as under Example B.

Granulation Tissue = assay: Cotton-pellet test (granulation tissue); format: in vivo; settings: rat
Description: test animals are male rats (SIV 50) weighing 110 to 200 g. All test animals are kept fasting for 16 to 18 hours prior to the implantation of the pellets; after that food and water were available ad libitum. Each dose level of the chemical tested was administered to 12 animals. The substances were suspended in 1% Tragacanth mucilage and administered intragastrically by means of a stomach tube. The substances to be investigated and the control suspensions are administered once on the operating day following operation, and twice a day on the following 6 days (at intervals of 6 to 8 hours). The type of application and volume of liquid corresponded to that under B.
Under light ether anesthesia 4 sterile cotton pellets were implanted under the skin on the back of the animal. The weight of one pellet was 50 mg ± 0.5 mg. After 7 days treatment, the animals were sacrificed, the pellets removed with the granulation tissue, weighed and then dried in the incubator at +80°C to constant weight. The average dry weight of the granulation tissue of the control group was rated 100%, and deviations of the mean weights of the group treated with the test substance determined as a percentage thereof.
The weight of the animals is measured daily throughout the tests, and the percental increase determined. At the end of some tests, moreover, the suprarenal glands are removed and their weight determined.

## N=C(NCCN1CCCC1)c1sc2ccccc2c1O [Example 34]
[1]; sc., 125 mg/kg, section K, read-out: volume (paw, control = 100%)
  response vs control in vivo at 125 mg/kg: 54%
Granuloma Pouch
  granuloma pouch dry weight %: 79%
  secretion %: 75%
Granuloma Pouch; control 55
  increase in body weight %: 51%
In vivo; sc
  LD50: ~600 mg/kg

## N=C(NCCN1CCOCC1)c1sc2ccccc2c1O [Example 33]
[1]; sc., 225 mg/kg, section K (control -10)
  change in vivo at 225 mg/kg: 34%
[1]; sc., 225 mg/kg, section K, read-out: volume (paw, control = 100%)
  response vs control in vivo at 225 mg/kg: 46%
In vivo; sc
  LD50: ~1000 mg/kg

## CCCC1C(=O)N2C(N(C)C)=Nc3ccc(C)cc3N2C1=O (centres unmarked) [Azapropazone, 3-Dimethylamino-7-methyl-1,2-(n-propylmalonyl)-1,2-dihydro-1,2-benzotriazine-dihydrate]
[2]; 250.0 mg/kg
  60 Minutes (paw edema): 100%
  120 Minutes (paw edema): 93%
  180 Minutes (paw edema): 67%
[1]; i.g., 250.0 mg/kg
  Volume (increase in paw volume, blank control = 100%): 98%
[1]; i.g., 400.0 mg/kg
  Pain Threshold (change vs initial value): -52%
  Volume (increase in paw volume, blank control = 100%): 100%
Male mice (NMRI)
  Notes (analgesic activity): ineffective
[3]
  Swelling: 91%
[4]; 100.0 mg/kg
  1st Phase (paw edema): 72%
  2nd Phase (paw edema): 50%
  3 Hrs. (total paw edema): 63%
[4]; 400.0 mg/kg
  1st Phase (paw edema): 79%
  2nd Phase (paw edema): 21%
  3 Hrs. (total paw edema): 55%
Granulation Tissue; i.g., 2 × 150 mg/kg daily
  Granulation Tissue % (Dry Weight): 76%
  Increase in Body Weight: not influenced

## CCOCCCNC(=N)c1sc2ccccc2c1O [Example 41]
[1]; po, ig., 125 mg/kg, section K (control -9)
  change in vivo at 125 mg/kg: 22%
[1]; po, ig., 125 mg/kg, section K, read-out: volume (paw, control = 100%)
  response vs control in vivo at 125 mg/kg: 51%
In vivo; po
  LD50: ~1600 mg/kg
Granulation Tissue; ig., 2×150 mg/kg daily, section K
  granulation tissue % dry weight: 90%
Granulation Tissue; ig., 2×150 mg/kg daily, section K, control 36
  increase in body weight %: 29%

## CCOCCOC(=N)c1sc2ccccc2c1O [Example 11]
[2]; 50 mg/kg
  60 min. (paw edema): 40%
  120 min. (paw edema): 36%
  180 min. (paw edema): 56%
[2]; 100 mg/kg
  60 min. (paw edema): 22%
  120 min. (paw edema): 27%
  180 min. (paw edema): 46%
[1]; po, ig., 200 mg/kg, section K
  change in vivo at 200 mg/kg: 32%
[1]; po, ig., 200 mg/kg, section K, read-out: volume (paw, control = 100%)
  response vs control in vivo at 200 mg/kg: 41%
In vivo; po
  LD50: > 1600 mg/kg
